US20100204460A1, “NATURAL BRASSINOSTEROIDS FOR USE FOR TREATING HYPERPROLIFERATION, TREATING PROLIFERATIVE DISEASES AND REDUCING ADVERSE EFFECTS OF STEROID DYSFUNCTION IN MAMMALS, PHARMACEUTICAL COMPOSITION AND ITS USE” (priority 2007, published 2010)

Experiments:
Type in all cases: cell-based
MCF-7 cells = assay: Cell cycle distribution by flow cytometry, MCF-7; details: IC50, 24 h; for Cell cycle distribution S: control 14%; for Apoptosis subG1 fraction: control 17%; for Cell cycle distribution G2/M: control 26%; for Cell cycle distribution G1: control 60%
Description: (§1) In the MCF-7 breast cancer cell line that has been the most widely studied experimental cell system, the typical growth inhibitory response to antiestrogens is decrease in the proportion of cells synthesising DNA (S phase) after antiestrogen treatment. This decrease in S phase coincides with an increase in the proportion of cells in G0/G1 phase. The activity of the androgen receptor (AR) is also regulated by alterations in cell signaling. There has been reported ligand independent activation of AR in prostate cancer cells by different growth factors. As the AR can be activated in the absence of hormone, it appears that the conditions may be more restricted than those observed for ER. Use of physiologic doses of ligand (dihydrotestosterone, DHT) is of importance as the LNCaP cells proliferate only at DHT concentration of 10^−9 M or lower. […] In contrast to proliferation, transactivation of AR specific target genes (e.g. PSA) continues to increase with DHT doses of 10^−10 M and higher. It might be accepted for estrogen or androgen receptors as stronger cytotoxic activities of brassinosteroids 9 or 6 on hormone-sensitive (MCF-7, LNCaP) compared to hormone-insensitive (MDA-MB-468, DU-145) cell lines were found. Therefore we explored the possibility of cell cycle perturbation by BRs in different cancer cell lines. Flow cytometry was used to evaluate the number of cells in the particular phases of the cell cycle, including subG1 peak detection. Control and treated cells were washed twice with cold PBS and centrifuged at 360×g for 10 min at 4° C., and fixed with chilled ethanol (70%; v/v) by low-speeded vortexing. For detection of DNA content analysis, propidium iodide staining was used. The cells were analyzed using a FACSCalibur flow cytometer (BD Biosciences, San Jose, Calif.).
(§2) Flow-cytometric detection of apoptosis. Several studies have declared that the induction of apoptosis may be cell cycle-dependent. Therefore, in our next series of experiments, we tested if brassinosteroids 9 or 6 cause apoptosis of the breast and prostate cancer cells via cell cycle blockage. From this reason we carried out DNA cell cycle analysis by flow cytometry based on detection of endonucleolytic DNA degradation that results in extraction of low molecular weight DNA from the cells. […] The subG1 peak containing apoptotic bodies was however not observed in MCF-7 cells.

MDA-MB-468 cells [1] = assay: Cell cycle distribution by flow cytometry, MDA-MB-468; details: IC50, 24 h; for Apoptosis subG1 fraction: control 10%; for Cell cycle distribution G2/M: control 17%; for Cell cycle distribution S: control 31%; for Cell cycle distribution G1: control 52%
Description: as §1, §2

[2] = system: T-lymphoblastic leukaemia cell line CEM; assay: Calcein AM cytotoxicity assay, CEM; details: CEM; six 4-fold dilutions, exposure 72 h (b71 says 96 h); mean ± SD; read-out: IC50 assessed by Calcein AM assay of surviving cells
[3] = system: LNCaP (androgen-sensitive) prostate cancer cell line; assay: MTT cytotoxicity test, LNCaP; details: 24 h, mean ± SD, read-out: IC50 determined by MTT cytotoxicity test
Description: (§3) 3-(4,5-Dimethylthiazol-2-yl)-2,5-diphenyltetrazolium bromide (MTT) was from Serva Electrophoresis (Heidelberg, Germany). Monoclonal mouse anti-bromodeoxyuridine (BrdU) intibody was obtained from DakoCytomation (Glostrup, Denmark). Calcein AM was obtained from PAA Laboratories GmbH (Pasching, Austria). […] All other cells were cultured in DMEM medium (Sigma, MO, USA). All used media were supplemented with 10% heat-inactivated fetal bovine serum, 2 mmol/L L-glutamine, 1% penicillin/streptomycin. The cell lines were maintained under standard cell culture conditions at 37° C. and 5% CO2 in a humid environment. Cells were subcultured twice or three times a week using the standard trypsinization procedure (Sigma, USA).
(§4) Cell viability in this case was assessed by 3-(4,5-dimethylthiozol-2-yl)-2,5-diphenyltetrazolium bromide (MTT) to determine IC50 concentrations of studied agents as described previously. […] The cells (70% to 80% confluent) were treated with brassinosteroids for 6, 12 and 24 h in cell culture medium. Cells that were used as controls were incubated with the maximum used amount of steroid diluent DMSO only. […] The absorbance was read using an ELISA reader Labsystem Multiscan RC at 570 nm. The viability of treated cells was related to the viability of control cells that represented 100% viability. […]

MDA-MB-468 cells [4] = assay: BrdU incorporation assay, MDA-MB-468
Description: (§5) To analyze if the inhibition in cell viability was due to decreased cell proliferation, we measured DNA synthesis in the presence of BRs. The effect of brassinosteroids 9 or 6 on cell proliferation and DNA replication of the cancer cells was measured by BrdU incorporation assay. This immunostaining was based on nuclear incorporation of bromodeoxyuridine (BrdU) into DNA in place of thymidine during the S-phase of cell cycle detected by anti-specific-BrdU antibody following membrane permeabilization as described previously (Gratzner, Science. 1982, 218, 474-475). […] The BrdU reagent (0.1 mM; Sigma, MO, USA) was added in culture medium with cells for 4 h in a CO2 incubator at 37° C. After incubation the cells were washed three times with PBS and fixed with cold acetone-methanol (1:1, v/v) for 10 min. The cells were denaturated by HCl (1:5; Lachema, Czech Republic) and incubated with anti-specific-BrdU antibody (diluted 1:100 in PBS; clone Bu20a, DakoCytomation, Denmark) for 60 min in the dark. The cells were then washed three times in PBS (10 mM, pH 7.4) and incubated with goat anti-mouse fluorescein isothiocyanate (FITC)-labeled secondary antibody (Sigma, MO, USA) for 60 min in the dark. The cells were then washed three times in PBS and incubated with DAPI (50 μg/mL; Sigma, MO, USA) for 10 min in the dark. The coverslips with cells were washed in deionized water and mounted on glass slides, using the hydrophilic medium Mowiol (Calbiochem, Calif., USA) in glycerol-PBS (1:3, v/v) for fluorescence. Cells were visualized using microscopy and those incorporating BrdU (S phase cells) were counted in at least 25 fields and compared with the total number of all cells.

[5] = system: malignant human melanoma cell line G361; assay: Calcein AM cytotoxicity assay, G 361; details: G 361; exposure 72 h (b71 says 96 h); mean ± SD; read-out: IC50 assessed by Calcein AM assay of surviving cells
LNCaP cells = assay: BrdU incorporation assay, LNCaP
Description: as §5

[6] = system: MDA-MB-468 (estrogen receptor-α-negative) breast cancer cell line; assay: MTT cytotoxicity test, MDA-MB-468; details: 24 h, mean ± SD, read-out: IC50 determined by MTT cytotoxicity test
Description: as §3, §4

[7] = treated at IC50 for 6 h, control 64 ± 1.5
[8] = treated at IC50 for 12 h, control 58 ± 3.0
[9] = treated at IC50 for 24 h, control 64 ± 5.6
[10] = treated at IC50 for 6 h, control 44 ± 6.0
[11] = treated at IC50 for 12 h, control 52 ± 7.6
[12] = treated at IC50 for 24 h, control 59 ± 8.0

| Structure (SMILES) | Cell cycle distribution S (MCF-7 cells) [%] | Apoptosis subG1 fraction (MCF-7 cells) [%] | Cell cycle distribution G2/M (MCF-7 cells) [%] | Cell cycle distribution G1 (MCF-7 cells) [%] | Apoptosis subG1 fraction (MDA-MB-468 cells [1]) [%] | Cell cycle distribution G2/M (MDA-MB-468 cells [1]) [%] | Cell cycle distribution S (MDA-MB-468 cells [1]) [%] | Cell cycle distribution G1 (MDA-MB-468 cells [1]) [%] | IC50 [2] [µM] | IC50 [3] [µM] | percentage of proliferating BrdU positive cells (MDA-MB-468 cells [4]; [7]) [%] | percentage of proliferating BrdU positive cells (MDA-MB-468 cells [4]; [8]) [%] | percentage of proliferating BrdU positive cells (MDA-MB-468 cells [4]; [9]) [%] | IC50 [5] [µM] | percentage of proliferating BrdU positive cells (LNCaP cells; [10]) [%] | percentage of proliferating BrdU positive cells (LNCaP cells; [11]) [%] | percentage of proliferating BrdU positive cells (LNCaP cells; [12]) [%] | IC50 [6] [µM] |
| --- | --- | --- | --- | --- | --- | --- | --- | --- | --- | --- | --- | --- | --- | --- | --- | --- | --- | --- |
| CC(C)[C@@H](C)[C@@H](O)[C@H](O)[C@@H](C)[C@H]1CC[C@H]2[C@@H]3COC(=O)[C@H]4C[C@H](O)[C@H](O)C[C@]4(C)[C@H]3CC[C@]12C [Brassinosteroid 6, 24-Epibrassinolide] | 7 | 13 | 12 | 81 | 75 | 2 | 10 | 88 | 44 ± 2.2 | 60 ± 3.1 | 53 ± 4.4 | 55 ± 3.5 | 43 ± 3.6 | > 50 | 36 ± 5.5 | 31 ± 2.0 | 29 ± 4.7 | 68 ± 2.5 |
| CC[C@@H](C(C)C)[C@@H](O)[C@H](O)[C@@H](C)[C@H]1CC[C@H]2[C@@H]3CC(=O)[C@H]4C[C@H](O)[C@H](O)C[C@]4(C)[C@H]3CC[C@]12C [Brassinosteroid 9, 28-Homocastasterone] | 11 | 15 | 9 | 80 | 35 | 9 | 17 | 74 | 13 | 45 ± 2.3 | 55 ± 5.0 | 48 ± 4.6 | 28 ± 4.6 | > 50 | 25 ± 3.0 | 28 ± 4.6 | 27 ± 2.1 | 65 ± 2.8 |
